One data set deals with T1, full-length SHP2 (Homo sapiens, UniProt Q06124).
T1 construct: used for the expression and purification of the full-length SHP2; made in house; host or cells: E. coli (similar protocol as for SHP2-PTP)
T1 sequence (Q06124 1-593): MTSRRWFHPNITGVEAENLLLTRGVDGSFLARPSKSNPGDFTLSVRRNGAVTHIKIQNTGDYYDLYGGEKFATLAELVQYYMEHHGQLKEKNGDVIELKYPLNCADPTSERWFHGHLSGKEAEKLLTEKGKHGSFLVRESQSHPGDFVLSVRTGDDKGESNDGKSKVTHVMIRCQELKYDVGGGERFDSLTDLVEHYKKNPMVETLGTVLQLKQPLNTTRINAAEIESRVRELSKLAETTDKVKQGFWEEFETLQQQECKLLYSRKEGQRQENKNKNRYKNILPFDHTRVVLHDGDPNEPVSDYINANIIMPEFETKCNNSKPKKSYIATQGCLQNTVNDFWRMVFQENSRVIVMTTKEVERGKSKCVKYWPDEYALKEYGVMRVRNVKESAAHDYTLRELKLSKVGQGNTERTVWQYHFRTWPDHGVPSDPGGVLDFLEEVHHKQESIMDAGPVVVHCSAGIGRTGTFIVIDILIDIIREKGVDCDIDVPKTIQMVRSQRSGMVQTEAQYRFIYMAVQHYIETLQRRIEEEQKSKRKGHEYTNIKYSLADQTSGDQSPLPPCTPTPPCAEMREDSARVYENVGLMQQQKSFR
Kind of data set: full-length SHP2 inhibition assay (DiFMUP, pIRS-1 activated). Format: biochemical. As to conditions: activating peptide p-IRS-1 supplemented; read-out: IC50 on full length SHP2 (SHP2-FL). How it is done: Cell pellets were collected and suspended in a buffer of 50 mM Tris-HCl (Ph = 8.5), 150 mM NaCl supplemented with 10% glycerol, and lysed by homogeniser (JN-BIO, China). After centrifugation, the collected supernatants were diluted with a Tris-HCl buffer (pH = 8.5) containing 50 mM imidazole and 150 mM NaCl and then loaded onto a Ni-NTA column (#88221, Thermo). The bound SHP2 protein was eluted with a buffer containing 150 and 300 mM imidazole. The pooled protein was loaded onto a HiTrap Q column after dilution in 25 mM Tris-HCl buffer. After elution using a linear gradient of NaCl (0–0.5 M), peak fractions containing the SHP2 protein were concentrated and applied to a gel filtration Superdex 200 column (GE Healthcare). Purified SHP2-PTP proteins were flash-frozen and stored. Similar expression and purification protocols were used for the expression and purification of the full-length SHP2 and SHP2-PTP ^K366A/Q510A double mutants.
A surrogate phosphatase substrate, 6,8-difluoro-4-methylumbelliferyl phosphate (DiFMUP, Thermo Fisher, #D22065), was used to monitor the catalytic activity of SHP2 in a prompt fluorescence assay format. […] The signals were read on a plate reader (SpectraMax iD5, Molecular Devices). […] The inhibitor dose-response curves were evaluated using a normalised IC50 regression curve fitting with control-based normalisation. […]

In a further data set the test system is mouse liver. The data set is described as follows: LIN alone in mice (toxicity). Format: in vivo, C57BL/6 mice. As to conditions: LIN alone 40 mg/kg i.g. once per day, 4 weeks. The procedure: C57BL/6 mice (20 ± 2 g) were obtained from Hangzhou Medical College Experimental Animal Center (Hangzhou, China). The animals were maintained under controlled temperature (22°C ± 1°C), humidity (50%), and light (12 h light/12 h dark). The animals were fed a standard laboratory diet and provided with free access to tap water. All animals received humane care according to institutional animal care guidelines approved by the Experimental Animal Ethical Committee of Hangzhou Medical College. […] After treatment, the mice were sacrificed, and plasma and liver tissues were collected and further analysed.
Serum was collected from blood samples after centrifugation at 860 × g for 15 min. Serum ALT (Nanjing Jiancheng Bioengineering Institute, C010-2-1) and AST (Nanjing Jiancheng Bioengineering Institute, C009-2-1) activities were measured using kits, according to the manufacturer’s instructions. Liver hydroxyproline content was determined using the alkaline hydrolysis method, as described in the kits. Serum levels of laminin (LN) were measured using ELISA kits, according to the manufacturer’s instructions (Shanghai YANJIN Biological Technology Co., LTD, F12019). […]

One may read the IC50 as the concentration that inhibits the measured activity by half. For `C/C1=C\CCC2=C[C@@H](OC2=O)c2c(C)coc2C1` [LIN, linderalactone], the IC50 at full-length SHP2 was determined as 1980 nM. For the same molecule, in the data set on mouse liver, the ALT/AST entry is listed as “no obvious alteration” and the “pathological changes in mouse liver tissue” value is “no obvious alteration”.

The values above are taken from article PMC9946977, “Identification of linderalactone as a natural inhibitor of SHP2 to ameliorate CCl4-induced liver fibrosis” (Frontiers in Pharmacology, 2023).
